In brackets after ≈: the same amount, converted by molar mass.
settings: buffer; pH 7.4; 200.0 µM

| SMILES | solubility kinetic [µg/mL] |
| --- | --- |
| Cc1c(Cl)ccc2c(C(N)=O)cc(-c3ccccn3)nc12 | 0.2 (≈ 0.672 µM) |
| CN(C)CCOC(=O)NCC12CC3CC(CC(C3)C1)C2.Cl | > 47.5 |
| O=C(O)C(Cc1ccccc1)N1C(=O)c2c(Cl)c(Cl)c(Cl)c(Cl)c2C1=O (centres undefined) | > 65 |
| COc1ccc(-c2nc(=S)n3ccsc3n2)cc1OC | 4.4 (≈ 14.4 µM) |
| O=C(c1ccccc1)N1CCN(C(=O)c2cccnc2)CC1 | > 44.3 |
| CCOc1ccc(-c2cn(-c3ccccc3OC)c(=S)[nH]2)cc1 | 17.7 (≈ 54.2 µM) |
| O=C(CSc1cccc[n+]1[O-])Nc1ccc(Br)cc1Br | 6.7 (≈ 16 µM) |
| CCOC(=O)c1c(C)n(C)c2cc([N+](=O)[O-])c(O)c([N+](=O)[O-])c12 | 44.9 (≈ 139 µM) |
| CCc1nonc1NC(=O)c1oc2ccc(Cl)cc2c1C | < 0.2 |
| Cc1scc(C(=O)N2CCN(c3ccc(Cl)cc3)CC2)c1C | 23.3 (≈ 69.6 µM) |
| Cc1ccc2nc(-c3ccccc3)c(CC(=O)O)c(C(=O)O)c2c1 | > 48.2 |
| O=C(COC(=O)c1ccccc1O)Nc1cc([N+](=O)[O-])ccc1Cl | < 0.4 |
| CC(C)c1onc(C(=O)N2CCN(c3ccccc3)CC2)c1[N+](=O)[O-] | 1.9 (≈ 5.52 µM) |
| CCOC(=O)c1[nH]c(C)c(C(=O)/C=C/c2ccc(C(=O)O)cc2)c1C | > 51.2 |
| CC1(C)c2ccccc2N2CC(=O)N[C@@]21/C=C/C=C/c1ccccc1 | 0.9 (≈ 2.72 µM) |
| O=[N+]([O-])c1ccc(O)c(C=Nc2ccc3c(c2)OCO3)c1 | 15.8 (≈ 55.2 µM) |
| O=C(CN1C(=O)c2ccccc2C1=O)Nc1ccccc1 | 18.9 (≈ 67.4 µM) |
| CCNS(=O)(=O)c1ccc(NC(=O)Nc2ccc3c(c2)OCO3)cc1 | 12.1 (≈ 33.3 µM) |
| O=C1CCC(C(=O)OCC(=O)Nc2ccc(Cl)cc2C(F)(F)F)=NN1 | > 56.7 |
| COc1cccc(OC)c1C(=O)OCC(=O)NCC(C)C | > 44.3 |
| O=C(OCC(=O)N1CCOCC1)c1ccc(N2CCOCC2)c([N+](=O)[O-])c1 | 54.6 (≈ 144 µM) |

| SMILES | solubility kinetic [µg/mL] |
| --- | --- |
| COc1ccc(CNCc2ccncc2)c(OC)c1.Cl | > 44.2 |
| Cc1nc2sc(C(N)=O)c(N)c2c(C)c1CC(=O)c1ccccc1 | 1.7 (≈ 5.01 µM) |
| O=C(c1cc(-c2cccc(O)c2)on1)N1CCCC1 | 32.6 (≈ 126 µM) |
| CCn1c(C)cc(C(=O)COC(=O)c2ccccc2[N+](=O)[O-])c1C | 15.3 (≈ 46.3 µM) |
| COc1ccc(C(=O)Nc2cccc(S(=O)(=O)NC3=NCCC3)c2)cc1OC | 40.4 (≈ 100 µM) |
| CCOc1ccc(CNCCc2ccc3c(c2)OCO3)cc1 | > 44.9 |
| COc1ccc(C2(C)NC(=O)N(CC(=O)N(c3ccccc3)C3CCS(=O)(=O)C3)C2=O)cc1 (centres undefined) | 52.8 (≈ 112 µM) |
| CCOC(=O)C1(Cc2ccccc2)CCCN(CCO)C1 (centres undefined) | > 43.7 |
| CCOc1ccc(N2CC(C(=O)NC3=NCCS3)CC2=O)cc1 (centres undefined) | > 50 |
| Cc1ccsc1CNC12CC3CC(CC(C3)C1)C2.Cl | 38.1 |
| COc1ccc(Cl)cc1NC(=O)C1(c2cccs2)CCOCC1 | 21.7 (≈ 61.7 µM) |
| CCc1nonc1NC(=O)c1oc2ccc(C)cc2c1C | < 0.2 |
| CN(c1ccccc1)c1nc(N)c([N+](=O)[O-])c(N2CCOCC2)n1 | 47.6 (≈ 144 µM) |
| O=c1sc2ccccc2c(N2CCOCC2)c1[N+](=O)[O-] | 12.8 (≈ 43.8 µM) |
| COc1ccccc1CC(=O)NC12CC3CC(CC(C3)C1)C2 | 7.8 (≈ 26.1 µM) |
| CN(C(=O)Nc1cccc(C(F)(F)F)c1)C1CCCCC1 | < 0.3 |
| Cc1ccc(C(C)C)c(OCCN2CCc3ccccc3C2)c1.Cl | < 0.7 |
| Cc1ccc(NC(=S)Nc2cccc3ccccc23)cc1 | 1.5 (≈ 5.13 µM) |
| COc1ccc(NC(=S)/N=C(\N)Nc2nc(C)c3ccccc3n2)cc1 | 0.7 (≈ 1.91 µM) |
| CC(=O)Nc1cccc(C(=O)Nc2cccc3ncccc23)c1 | 40.3 (≈ 132 µM) |
| COc1cc(/C=C2\NC(=O)NC2=O)cc(Br)c1OC | 10.5 (≈ 32.1 µM) |

| SMILES | solubility kinetic [µg/mL] |
| --- | --- |
| Cc1ccc(C2(C)NC(=O)N(CC(=O)N(c3ccccc3)C3CCS(=O)(=O)C3)C2=O)cc1 (centres undefined) | > 68.3 |
| O=c1oc2ccccc2nc1/C=C(\O)c1ccc(Br)cc1 | 19 (≈ 55.2 µM) |
| Cc1ccccc1Nc1nc(N)nc(CSc2nnc(C)n2C)n1 | > 51.4 |
| O=C(N[C@@H]1C[C@H]2CC[C@@H]1C2)c1ccco1 | 29.8 (≈ 145 µM) |
| CN(CC(O)Cn1cnc2c1c(=O)n(C)c(=O)n2C)c1ccccc1 (centres undefined) | > 51.5 |
| O=C(NC1CCCCC1)c1cc(-c2cccs2)on1 | 0.9 (≈ 3.26 µM) |
| COc1ccc(C2SCC(=O)N2c2ccc(C)cc2)cc1 (centres undefined) | 37.5 (≈ 125 µM) |
| CCCCCn1c(=O)c(C(=O)Nc2ccccc2N)c(O)c2ccccc21 | < 0.3 |
| c1ccc(-c2nc3ccccc3[nH]2)cc1 | 21.9 (≈ 113 µM) |
| CN(CC(=O)Nc1ccccc1Cl)C(=O)COC(=O)c1ccc(-c2ccc(O)cc2)cc1 | 3.2 (≈ 7.07 µM) |
| Cc1ccc(CNc2nc(N)c([N+](=O)[O-])c(NCCO)n2)cc1 | 43.4 (≈ 136 µM) |
| Cc1ccc(CNC(=O)C2CCCN(c3nc(C)cc(C)n3)C2)cc1 (centres undefined) | 0.6 (≈ 1.77 µM) |
| NC(=O)c1ccc(NC(=O)COC(=O)c2cc3c(s2)CCC3)cc1 | 8.6 (≈ 25 µM) |
| O=C(NC12CC3CC(CC(C3)C1)C2)c1ccc(Br)o1 | 9.7 (≈ 29.9 µM) |
| O=C1OC(Nc2ccc3ncccc3c2)c2ccccc21 (centres undefined) | 4.3 (≈ 15.6 µM) |
| CC(=O)Oc1ccc(-c2nc3ccccc3c(=O)o2)cc1 | 2.6 (≈ 9.24 µM) |
| CCSc1ncc(Cl)c(C(=O)Nc2ccccc2Cl)n1 | < 0.2 |
| O=C(NC1CCC(O)CC1)c1ccc(Br)o1 (centres undefined) | > 43.2 |
| CC(C)(C)SCCNS(=O)(=O)c1ccc(C#N)cc1 | 18.1 (≈ 60.7 µM) |
| COc1ccc(Cl)cc1N1C(=N)SCC1=O | > 38.5 |
| C=CCNC(=S)N1CCc2c([nH]c3ccccc23)C1C (centres undefined) | 27.7 (≈ 97.1 µM) |

| SMILES | solubility kinetic [µg/mL] |
| --- | --- |
| COc1ccc(C(=O)Nc2nccs2)cc1 | 8.1 (≈ 34.6 µM) |
| CCOc1ccc(C(C)NC(=O)C2CCCC2)cc1 (centres undefined) | > 39.2 |
| O=C(c1ccccc1)C1CCN(C(=O)c2cccs2)CC1 | 38.9 (≈ 130 µM) |
| Cc1cc(C)nc(SCc2cn3c(C)cc(C)nc3n2)n1 | > 44.9 |
| Cl.O=C(OCCN1CCCCC1)c1ccccc1F | > 43.2 |
| COc1ccc(NC(=O)Cn2c([N+](=O)[O-])cnc2C)cc1Cl | 2 (≈ 6.16 µM) |
| COc1ccc(Cl)cc1C(=O)Nc1ccncc1 | > 39.4 |
| O=C(NC1CCS(=O)(=O)C1)c1ccc(Br)s1 (centres undefined) | > 48.6 |
| CCOC(=O)c1cnc(/N=C/N(C)C)s1 | 29.6 (≈ 130 µM) |
| COc1ccc(NC(=O)c2cc3cc(OC)ccc3oc2=O)cc1 | < 0.7 |
| CCCn1c(=O)c(C#N)cn(C2CC2)c1=O | 32.4 (≈ 148 µM) |
| CCOc1ccc(CC(=O)NCCc2cnc[nH]2)cc1 | > 41 |
| CCOC(=O)c1ccc(N2C(=O)c3cccc4c(C(=O)O)ccc(c34)C2=O)cc1 | 25 (≈ 64.2 µM) |
| Cc1nc2oc3ccccc3c(=O)c2cc1C(=O)O | > 38.3 |
| Cl.FC(F)(F)c1cccc(C2NCc3ccccc3-n3cccc32)c1 (centres undefined) | 3.9 |
| Cc1ccc2nc(NC(=O)c3ccc(Br)o3)sc2c1 | < 0.4 |
| O=C(NC1CCCCC1)c1ccccc1C(F)(F)F | 38.9 (≈ 143 µM) |
| COC(=O)c1cc(=O)n2c(sc3ccccc32)c1C#N | 1.3 (≈ 4.57 µM) |
| O=C(/C=C/c1ccc2c(c1)OCO2)NC1CCCC1 | 31.4 (≈ 121 µM) |
| Cc1cccc(C(=O)OCC(=O)Nc2ccc(F)cc2)c1 | 6.3 (≈ 21.9 µM) |
| CCC(CC)C(=O)c1c[nH]c(C(=O)NCc2cccnc2)c1 | 42.2 (≈ 141 µM) |
